# Assay results published in patent publication US20260297081A1, “COMPOUNDS AND METHODS OF TREATING CANCERS” (Cullgen Inc., priority 2023, published 2026).
# Biological target: CDK4 (Homo sapiens, UniProt P11802+Q16531)
# Test: HiBiT detection of HiBiT-tagged CDK4 protein level in MCF7 cells, 16 hours (Table 8)
# Assay type: cell-based
# Set-up: expressed in transfected cells; host or cells: MCF7
# Settings: MCF7 cells stably expressing HiBiT tagged target proteins; for activity at 0.01 µM: 10 nM, read-out: % CDK4 Relative Level (10 nM); for activity at 0.1 µM: 100 nM, read-out: % CDK4 Relative Level (100 nM)
# Experimental: HiBiT detection system quantitatively measures total amounts of HiBiT-tagged proteins using a luminescent based method. MCF7 cells stably expressing HiBiT tagged target proteins were treated with heterobifunctional compounds at indicated concentrations for 16 hours, then lysed with Nano-Glo HiBiT Lytic detection reagents.
# Chain of CDK4 (P11802 whole entry): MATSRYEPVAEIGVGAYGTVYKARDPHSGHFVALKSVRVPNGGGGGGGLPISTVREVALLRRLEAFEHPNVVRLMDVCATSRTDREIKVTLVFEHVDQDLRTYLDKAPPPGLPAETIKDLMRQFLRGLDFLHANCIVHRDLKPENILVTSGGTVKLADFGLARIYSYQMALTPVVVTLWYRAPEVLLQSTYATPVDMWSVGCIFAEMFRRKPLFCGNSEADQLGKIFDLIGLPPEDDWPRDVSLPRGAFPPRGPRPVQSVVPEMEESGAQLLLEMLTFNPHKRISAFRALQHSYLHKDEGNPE
# Chain of CDK4 (P24385 whole entry partner): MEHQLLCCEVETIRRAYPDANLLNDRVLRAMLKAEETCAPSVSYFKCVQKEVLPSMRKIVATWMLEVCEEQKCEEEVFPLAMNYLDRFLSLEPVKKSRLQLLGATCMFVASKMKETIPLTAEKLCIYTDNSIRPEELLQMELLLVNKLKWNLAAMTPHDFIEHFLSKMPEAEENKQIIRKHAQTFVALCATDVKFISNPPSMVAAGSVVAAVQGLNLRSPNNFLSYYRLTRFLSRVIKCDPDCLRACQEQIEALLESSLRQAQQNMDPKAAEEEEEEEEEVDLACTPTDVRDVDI
# Chain of CDK4 (Q16531 2-1140 limits assumed): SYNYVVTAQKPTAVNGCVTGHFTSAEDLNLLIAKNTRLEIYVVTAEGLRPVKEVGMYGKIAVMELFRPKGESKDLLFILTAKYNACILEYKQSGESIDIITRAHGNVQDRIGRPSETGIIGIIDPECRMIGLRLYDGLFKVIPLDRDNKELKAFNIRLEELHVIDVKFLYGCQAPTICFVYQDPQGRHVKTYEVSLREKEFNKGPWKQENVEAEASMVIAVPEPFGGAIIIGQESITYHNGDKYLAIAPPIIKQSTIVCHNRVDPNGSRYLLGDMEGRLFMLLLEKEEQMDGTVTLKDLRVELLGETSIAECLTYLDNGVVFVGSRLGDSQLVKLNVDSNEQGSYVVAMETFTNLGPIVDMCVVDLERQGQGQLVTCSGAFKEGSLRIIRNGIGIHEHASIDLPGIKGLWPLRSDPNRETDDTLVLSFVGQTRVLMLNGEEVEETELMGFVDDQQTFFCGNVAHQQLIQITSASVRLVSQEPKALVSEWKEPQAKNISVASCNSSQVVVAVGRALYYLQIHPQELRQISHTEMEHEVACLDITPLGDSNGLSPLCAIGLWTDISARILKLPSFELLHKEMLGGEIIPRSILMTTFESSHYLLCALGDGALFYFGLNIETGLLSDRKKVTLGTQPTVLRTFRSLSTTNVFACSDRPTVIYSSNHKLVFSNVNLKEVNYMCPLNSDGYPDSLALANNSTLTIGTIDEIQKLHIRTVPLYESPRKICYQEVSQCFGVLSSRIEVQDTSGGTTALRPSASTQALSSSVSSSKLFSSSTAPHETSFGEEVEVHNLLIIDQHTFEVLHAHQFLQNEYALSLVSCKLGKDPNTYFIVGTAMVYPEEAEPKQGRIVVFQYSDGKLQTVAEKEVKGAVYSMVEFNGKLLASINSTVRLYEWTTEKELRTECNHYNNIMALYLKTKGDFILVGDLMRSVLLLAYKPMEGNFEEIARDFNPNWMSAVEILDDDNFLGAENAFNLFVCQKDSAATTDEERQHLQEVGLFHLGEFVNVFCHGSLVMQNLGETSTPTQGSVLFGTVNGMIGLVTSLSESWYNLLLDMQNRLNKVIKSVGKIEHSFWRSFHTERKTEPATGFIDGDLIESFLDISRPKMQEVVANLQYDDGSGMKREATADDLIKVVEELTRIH
Compound,activity at 0.01 µM,activity at 0.1 µM
"CNc1ccc(C(=O)Nc2ccc(N(C)C)nn2)c(NCCCCCCCC(=O)N2CCN(c3ccc(Nc4ncc5cc6n(c5n4)C4(CCCCC4)CNC6=O)nc3)CC2)n1 [CPD-637, N-(6-(dimethylamino)pyridazin-3-yl)-6-(methylamino)-2-((8-oxo-8-(4-(6-((6′-oxo-7′,8′-dihydro-6′H-spiro[cyclohexane-1,9′-pyrazino[1′,2′:1,5]pyrrolo[2,3-d]pyrimidin]-2′-yl)amino)pyridin-3-yl)piperazin-1-yl)octyl)amino)nicotinamide]",> 85%,> 85%
"CNc1ccc(C(=O)Nc2ccc(N(C)C)nn2)c(NCCCCCC(=O)NC2CCC3(CC2)CC(Nc2ncc4ccc(=O)n(C5CCCC5)c4n2)C3)n1 (stereo not drawn) [CPD-676, 2-((6-((2-((8-cyclopentyl-7-oxo-7,8-dihydropyrido[2,3-d]pyrimidin-2-yl)amino)spiro[3.5]nonan-7-yl)amino)-6-oxohexyl)amino)-N-(6-(dimethylamino)pyridazin-3-yl)-6-(methylamino)nicotinamide]",> 85%,> 85%
"CC(C)Nc1ccc(C(=O)Nc2ccc(N(C)C)nn2)c(NC2CC3(CC(NC(=O)CN4CCN(Cc5ccc(Nc6ncc7cc(C(=O)N(C)C)n(C8CCCC8)c7n6)nc5)CC4)C3)C2)n1 (stereo not drawn) [CPD-562, 7-cyclopentyl-2-((5-((4-(2-((6-((3-((6-(dimethylamino)pyridazin-3-yl)carbamoyl)-6-(isopropylamino)pyridin-2-yl)amino)spiro[3.3]heptan-2-yl)amino)-2-oxoethyl)piperazin-1-yl)methyl)pyridin-2-yl)amino)-N,N-dimethyl-7H-pyrrolo[2,3-d]pyrimidine-6-carboxamide]",> 85%,> 85%
"CNc1ccc(C(=O)Nc2ccc(N(C)C)nn2)c(NCCCCCC(=O)N2CCN(c3ccc(Nc4ncc(F)c(-c5cc(F)c6nc(C)n(C(C)C)c6c5)n4)nc3)CC2)n1 [CPD-651, N-(6-(dimethylamino)pyridazin-3-yl)-2-((6-(4-(6-((5-fluoro-4-(4-fluoro-1-isopropyl-2-methyl-1H-benzo[d]imidazol-6-yl)pyrimidin-2-yl)amino)pyridin-3-yl)piperazin-1-yl)-6-oxohexyl)amino)-6-(methylamino)nicotinamide]",> 85%,> 85%
"CNc1ccc(C(=O)Nc2ccc(N(C)C)nn2)c(NCCCCCCNC(=O)CN2CCN(c3ccc(Nc4ncc(F)c(-c5cc(F)c6nc(C)n(C(C)C)c6c5)n4)nc3)CC2)n1 [CPD-662, N-(6-(dimethylamino)pyridazin-3-yl)-2-((6-(2-(4-(6-((5-fluoro-4-(4-fluoro-1-isopropyl-2-methyl-1H-benzo[d]imidazol-6-yl)pyrimidin-2-yl)amino)pyridin-3-yl)piperazin-1-yl)acetamido)hexyl)amino)-6-(methylamino)nicotinamide]",> 85%,> 85%
"CNc1ccc(C(=O)Nc2ccc(N(C)C)nn2)c(NCCCCCCCC(=O)N2CCN(c3ccc(Nc4ncc(F)c(-c5cc(F)c6nc(C)n(C(C)C)c6c5)n4)nc3)CC2)n1 [CPD-653, N-(6-(dimethylamino)pyridazin-3-yl)-2-((8-(4-(6-((5-fluoro-4-(4-fluoro-1-isopropyl-2-methyl-1H-benzo[d]imidazol-6-yl)pyrimidin-2-yl)amino)pyridin-3-yl)piperazin-1-yl)-8-oxooctyl)amino)-6-(methylamino)nicotinamide]",> 85%,> 85%
"CNc1ccc(C(=O)Nc2ccc(N(C)C)nn2)c(NCCCC(=O)NC2CCC(Nc3ncc4ccc(=O)n(C5CCCC5)c4n3)CC2)n1 (stereo not drawn) [CPD-667, 2-((4-((4-((8-cyclopentyl-7-oxo-7,8-dihydropyrido[2,3-d]pyrimidin-2-yl)amino)cyclohexyl)amino)-4-oxobutyl)amino)-N-(6-(dimethylamino)pyridazin-3-yl)-6-(methylamino)nicotinamide]",> 85%,> 85%
"CNc1ccc(C(=O)Nc2ccc(N(C)C)nn2)c(NCCOCCNC(=O)CN2CCN(c3ccc(Nc4ncc(F)c(-c5cc(F)c6nc(C)n(C(C)C)c6c5)n4)nc3)CC2)n1 [CPD-665, N-(6-(dimethylamino)pyridazin-3-yl)-2-((2-(2-(2-(4-(6-((5-fluoro-4-(4-fluoro-1-isopropyl-2-methyl-1H-benzo[d]imidazol-6-yl)pyrimidin-2-yl)amino)pyridin-3-yl)piperazin-1-yl)acetamido)ethoxy)ethyl)amino)-6-(methylamino)nicotinamide]",55 to 85%,> 85%
"CNc1ccc(C(=O)Nc2ccc(N(C)C)nn2)c(NCCCCC(=O)NC2CCC(Nc3ncc4ccc(=O)n(C5CCCC5)c4n3)CC2)n1 (stereo not drawn) [CPD-668, 2-((5-((4-((8-cyclopentyl-7-oxo-7,8-dihydropyrido[2,3-d]pyrimidin-2-yl)amino)cyclohexyl)amino)-5-oxopentyl)amino)-N-(6-(dimethylamino)pyridazin-3-yl)-6-(methylamino)nicotinamide]",> 85%,> 85%
"CNc1ccc(C(=O)Nc2ccc(N(C)C)nn2)c(NCCCCCCCCNC(=O)CN2CCN(c3ccc(Nc4ncc(F)c(-c5cc(F)c6nc(C)n(C(C)C)c6c5)n4)nc3)CC2)n1 [CPD-664, N-(6-(dimethylamino)pyridazin-3-yl)-2-((8-(2-(4-(6-((5-fluoro-4-(4-fluoro-1-isopropyl-2-methyl-1H-benzo[d]imidazol-6-yl)pyrimidin-2-yl)amino)pyridin-3-yl)piperazin-1-yl)acetamido)octyl)amino)-6-(methylamino)nicotinamide]",> 85%,> 85%
"CNc1ccc(C(=O)Nc2ccc(N(C)C)nn2)c(NCCCNC(=O)CN2CCN(c3ccc(Nc4ncc(F)c(-c5cc(F)c6nc(C)n(C(C)C)c6c5)n4)nc3)CC2)n1 [CPD-659, N-(6-(dimethylamino)pyridazin-3-yl)-2-((3-(2-(4-(6-((5-fluoro-4-(4-fluoro-1-isopropyl-2-methyl-1H-benzo[d]imidazol-6-yl)pyrimidin-2-yl)amino)pyridin-3-yl)piperazin-1-yl)acetamido)propyl)amino)-6-(methylamino)nicotinamide]",> 85%,> 85%
"CNc1ccc(C(=O)Nc2ccc(N(C)C)nn2)c(NCCC(=O)NC2CCC3(CC2)CC(Nc2ncc4ccc(=O)n(C5CCCC5)c4n2)C3)n1 (stereo not drawn) [CPD-673, 2-((3-((2-((8-cyclopentyl-7-oxo-7,8-dihydropyrido[2,3-d]pyrimidin-2-yl)amino)spiro[3.5]nonan-7-yl)amino)-3-oxopropyl)amino)-N-(6-(dimethylamino)pyridazin-3-yl)-6-(methylamino)nicotinamide]",> 85%,> 85%
"CNc1ccc(C(=O)Nc2ccc(N(C)C)nn2)c(NCCC(=O)N2CCN(c3ccc(Nc4ncc(F)c(-c5cc(F)c6nc(C)n(C(C)C)c6c5)n4)nc3)CC2)n1 [CPD-648, N-(6-(dimethylamino)pyridazin-3-yl)-2-((3-(4-(6-((5-fluoro-4-(4-fluoro-1-isopropyl-2-methyl-1H-benzo[d]imidazol-6-yl)pyrimidin-2-yl)amino)pyridin-3-yl)piperazin-1-yl)-3-oxopropyl)amino)-6-(methylamino)nicotinamide]",> 85%,> 85%
"CNc1ccc(C(=O)Nc2ccc(N(C)C)nn2)c(NCCNC(=O)CN2CCN(c3ccc(Nc4ncc(F)c(-c5cc(F)c6nc(C)n(C(C)C)c6c5)n4)nc3)CC2)n1 [CPD-658, N-(6-(dimethylamino)pyridazin-3-yl)-2-((2-(2-(4-(6-((5-fluoro-4-(4-fluoro-1-isopropyl-2-methyl-1H-benzo[d]imidazol-6-yl)pyrimidin-2-yl)amino)pyridin-3-yl)piperazin-1-yl)acetamido)ethyl)amino)-6-(methylamino)nicotinamide]",> 85%,> 85%
"CC(=O)c1c(C)c2cnc(Nc3ccc(CN4CCC(CC(=O)NC5CC6(C5)CC(Nc5nc(NC(C)C)ccc5C(=O)Nc5ccc(N(C)C)nn5)C6)CC4)cn3)nc2n(C2CCCC2)c1=O (stereo not drawn) [CPD-593, 2-((6-(2-(1-((6-((6-acetyl-8-cyclopentyl-5-methyl-7-oxo-7,8-dihydropyrido[2,3-d]pyrimidin-2-yl)amino)pyridin-3-yl)methyl)piperidin-4-yl)acetamido)spiro[3.3]heptan-2-yl)amino)-N-(6-(dimethylamino)pyridazin-3-yl)-6-(isopropylamino)nicotinamide]",> 85%,> 85%
"CNc1ccc(C(=O)Nc2ccc(N(C)C)nn2)c(NCCCCCNC(=O)CN2CCN(Cc3ccc(Nc4ncc(F)c(-c5cc(F)c6nc(C)n(C(C)C)c6c5)n4)nc3)CC2)n1 [CPD-611, N-(6-(dimethylamino)pyridazin-3-yl)-2-((5-(2-(4-((6-((5-fluoro-4-(4-fluoro-1-isopropyl-2-methyl-1H-benzo[d]imidazol-6-yl)pyrimidin-2-yl)amino)pyridin-3-yl)methyl)piperazin-1-yl)acetamido)pentyl)amino)-6-(methylamino)nicotinamide]",> 85%,> 85%
"CNc1ccc(C(=O)Nc2ccc(N(C)C)nn2)c(NCCCCCCCC(=O)NC2CCC(Nc3ncc4ccc(=O)n(C5CCCC5)c4n3)CC2)n1 (stereo not drawn) [CPD-671, 2-((8-((4-((8-cyclopentyl-7-oxo-7,8-dihydropyrido[2,3-d]pyrimidin-2-yl)amino)cyclohexyl)amino)-8-oxooctyl)amino)-N-(6-(dimethylamino)pyridazin-3-yl)-6-(methylamino)nicotinamide]",> 85%,> 85%
"CNc1ccc(C(=O)Nc2ccc(N(C)C)nn2)c(NCCCCC(=O)NC2CCC3(CC2)CC(Nc2ncc4ccc(=O)n(C5CCCC5)c4n2)C3)n1 (stereo not drawn) [CPD-675, 2-((5-((2-((8-cyclopentyl-7-oxo-7,8-dihydropyrido[2,3-d]pyrimidin-2-yl)amino)spiro[3.5]nonan-7-yl)amino)-5-oxopentyl)amino)-N-(6-(dimethylamino)pyridazin-3-yl)-6-(methylamino)nicotinamide]",> 85%,> 85%
